Earlier results, collected in patent US20160361270A1, “UNIFORM, HIGH BASIS WEIGHT NANOFIBER FABRICS FOR MEDICAL APPLICATIONS” (University of Washington, priority 2015, published 2016).

How the values were obtained:
[1] = not given; remark: listed apart in the source

Row | Structure (SMILES) | water solubility [µg/mL] | pKa [1]
1 | Cc1cc(C)c(Nc2ccnc(Nc3ccc(C#N)cc3)n2)c(C)c1 [dapivirine] | < 1 | –
2 | Cc1cc(C#N)cc(C)c1Oc1nc(Nc2ccc(C#N)cc2)nc(N)c1Br [etravirine] | < 100 | –
3 | Cc1nnc(C(=O)NC(C)(C)c2nc(C(=O)NCc3ccc(F)cc3)c(O)c(=O)n2C)o1 [raltegravir] | – | 7
4 | C[C@H](Cn1cnc2c(N)ncnc21)OCP(=O)(O)O [tenofovir] | > 1000 | –
